Measured values taken from the NIST ThermoML archive (doi:10.1016/j.jct.2018.02.013).

What was measured:
[1] = 101.33 kPa, Liquid; for thermal conductivity: transient hot wire; for mass density: Vibrating tube method; for viscosity: Cone and plate viscometry; for electrical conductivity: Direct current cell with electrodes
[2] = molar heat capacity at constant pressure; conditions: 101.33 kPa, Liquid, Small sample (50 mg) DSC

CCCCCC(=O)[O-].CCCCCCCCCCCCCC[P+](CCCCCC)(CCCCCC)CCCCCC [trihexyl(tetradecyl)phosphonium hexanoate]
Conditions | electrical conductivity [S/m] | mass density [kg/m3] | molar heat capacity at constant pressure [J/K/mol] | thermal conductivity [W/m/K] | viscosity [mPa·s]
[1], 278.22 K | – | – | – | 0.1591 | –
[1], 287.73 K | – | – | – | 0.1574 | –
[1], 293.15 K | – | 888.5 | – | – | –
[1], 293.2 K | – | – | – | – | 435.1
[1], 298.15 K | – | 885.5 | – | – | –
[1], 298.2 K | – | – | – | – | 343.1
[1], 298.98 K | – | – | – | 0.156 | –
[1], 299.6 K | 0.0033 | – | – | – | –
[1], 303.15 K | – | 882.3 | – | – | –
[1], 303.2 K | – | – | – | – | 260.7
[1], 303.8 K | 0.00454 | – | – | – | –
[1], 307.3 K | – | – | – | 0.1547 | –
[1], 308.1 K | 0.00563 | – | – | – | –
[1], 308.2 K | – | – | – | – | 200
[1], 313.15 K | – | 876 | – | – | –
[1], 313.2 K | – | – | – | – | 155.8
[1], 313.9 K | 0.00765 | – | – | – | –
[1], 318.15 K | – | – | – | 0.1533 | –
[1], 318.2 K | – | – | – | – | 123.4
[1], 318.4 K | 0.00943 | – | – | – | –
[1], 323.15 K | – | 869.7 | – | – | –
[1], 323.2 K | – | – | – | – | 99.18
[1], 323.6 K | 0.0118 | – | – | – | –
[1], 328 K | 0.0144 | – | – | – | –
[1], 328.2 K | – | – | – | – | 80.79
[1], 329.17 K | – | – | – | 0.151 | –
[1], 333.15 K | – | 863.6 | – | – | –
[1], 333.2 K | – | – | – | – | 66.6
[1], 333.6 K | 0.018 | – | – | – | –
[1], 336.96 K | – | – | – | 0.15 | –
[1], 338.2 K | – | – | – | – | 55.39
[1], 338.9 K | 0.0223 | – | – | – | –
[1], 343 K | 0.026 | – | – | – | –
[1], 343.15 K | – | 857.5 | – | – | –
[1], 343.2 K | – | – | – | – | 46.46
[1], 347.73 K | – | – | – | 0.1497 | –
[1], 348.2 K | – | – | – | – | 39.52
[1], 349.3 K | 0.0325 | – | – | – | –
[1], 353.15 K | – | 851.5 | – | – | –
[1], 353.2 K | – | – | – | – | 33.7
[1], 357.74 K | – | – | – | 0.1476 | –
[1], 358.2 K | – | – | – | – | 28.97
[1], 363.15 K | – | 845.4 | – | – | –
[1], 363.2 K | – | – | – | – | 25.05
[1], 368.2 K | – | – | – | – | 21.82
[2], 293.15 K | – | – | 1133.3 | – | –
[2], 298.15 K | – | – | 1141.7 | – | –
[2], 303.15 K | – | – | 1149.5 | – | –
[2], 308.15 K | – | – | 1156.7 | – | –
[2], 313.15 K | – | – | 1163.9 | – | –
[2], 318.15 K | – | – | 1169.3 | – | –
[2], 323.15 K | – | – | 1176.4 | – | –
[2], 328.15 K | – | – | 1182.4 | – | –
[2], 333.15 K | – | – | 1189 | – | –
[2], 338.15 K | – | – | 1196.8 | – | –
[2], 343.15 K | – | – | 1204 | – | –
[2], 348.15 K | – | – | 1211.2 | – | –
[2], 353.15 K | – | – | 1219 | – | –
[2], 358.15 K | – | – | 1227.4 | – | –
[2], 363.15 K | – | – | 1235.2 | – | –
